These results are taken from ChEMBL document CHEMBL3988442, “University of Dundee, Small-Polar-MMV Screening Library” (2021).

For orientation: IC50 means the concentration that inhibits the measured activity by half. Higher therefore signals a need for much substance.

Where only a bound is given, the exact number is not on record here.

The test system of the assay is Leishmania donovani. Put plainly: Leishmania intramacrophage assay. It counts as functional, organism-based. The settings on record: Leishmania donovani.

Regarding `O=C(O)C1CCCN1c1nc(-c2ccc(Cl)c(Cl)c2)cc(C(F)(F)F)n1` (configuration not stated), the IC50 was > 50.1 µM.

As for `c1ccc(C2CCN(c3cncc(-n4cccn4)n3)CC2)cc1`, the IC50 was > 50.1 µM. Then `CCC(CO)NC(=O)c1ccc2ccc(N(C)CC3CC3)n2c1` (configuration not stated), with > 50.1 µM; and `CCn1ncc(-c2cc(C(F)F)nc3sc(C(N)=O)c(N)c23)c1C`, with > 50.1 µM. As for `Cc1c(-c2cc(C(F)F)nc3sc(C(N)=O)c(N)c23)cnn1C`, the IC50 was > 50.1 µM. Then `CCn1cc(-c2cc(C(F)F)nc3sc(C(N)=O)c(N)c23)c(C)n1`, with > 50.1 µM. In the case of `O=C(O)C1CCCN1c1nc(C2CC2)cc(C(F)(F)F)n1` (configuration not stated), the half-maximal inhibitory concentration (IC50) is > 50.1 µM. Turning to `O=C(O)C1CCCN1c1nc(-c2ccc(Cl)cc2)cc(C(F)(F)F)n1` (configuration not stated), the IC50 was > 50.1 µM. Then `CCN1CCCC(O)(c2nc(C)c(CCOc3ccc(F)cc3)s2)CC1` (configuration not stated), with > 50.1 µM; and `CCN1CCCC(O)(c2nc(C)c(CCOc3ccccc3F)s2)CC1` (configuration not stated), with > 50.1 µM; and `CCN1CCCC(O)(c2nc(C)c(CCOc3ccccc3Cl)s2)CC1` (configuration not stated), with > 50.1 µM. `CCCC(=O)N1CCC(c2ncc3c(n2)CCNC3)CC1`: the IC50 is > 50.1 µM. The result for `O=C(CC1CCCCC1)N1CCC(c2ncc3c(n2)CCNC3)CC1` reads > 50.1 µM; that for `O=C(C1CCC1)N1CCC(c2ncc3c(n2)CCNC3)CC1`, > 50.1 µM; that for `CCC(=O)N1CCC(c2ncc3c(n2)CCNC3)CC1`, > 50.1 µM. The result for `CC1CCCN(CC(=O)N2CCC(c3ncc4c(n3)CCNC4)CC2)C1` (configuration not stated) reads > 50.1 µM; that for `O=C(CCC1CCCC1)N1CCC(c2ncc3c(n2)CCNC3)CC1`, > 50.1 µM; that for `CC(NC(=O)Cn1ccnc1)c1ccc(OCC2CC2)c(F)c1` (configuration not stated), > 50.1 µM. Turning to `Cc1sc2nc(C(F)(F)F)nc(N3CCN(C)CC3)c2c1C`, the half-inhibitory concentration (IC50) is > 50.1 µM. The compound `Cc1sc2nc(C(F)(F)F)nc(N3CCCN(C)CC3)c2c1C` had a half-inhibitory concentration (IC50) of 46.2 µM. The result for `Cc1sc2nc(C(F)(F)F)nc(N3CCN(S(C)(=O)=O)CC3)c2c1C` reads > 50.1 µM; that for `Cc1sc2nc(C(F)(F)F)nc(N3CCC(NS(C)(=O)=O)CC3)c2c1C`, > 50.1 µM. The result for `CC(=O)N1CCN(c2nc(C(F)(F)F)nc3sc(C)c(C)c23)CC1` reads > 50.1 µM; that for `Cc1cnn(-c2cccc(N3CCCC3)n2)c1`, > 50.1 µM. Then `NS(=O)(=O)NCC1(c2ccccc2Br)CC1`, with > 50.1 µM; and `CN(c1ncnc2c1CCC2)C1CCCN(c2cccnn2)C1` (configuration not stated), with > 50.1 µM.

Turning to `Cc1ccc(N2CCCC(N(C)c3ncnc4c3CCC4)C2)nn1` (configuration not stated), the half-inhibitory concentration (IC50) was > 50.1 µM. `CN(c1ncnc2sccc12)C1CCCN(c2cccnn2)C1` (configuration not stated): the IC50 was > 50.1 µM.

`CN(c1ncnc2c1cnn2C)C1CCCN(c2cccnn2)C1` (configuration not stated): the concentration for half-maximal inhibition (IC50) is > 50.1 µM. Consider `COCc1nc(CNc2cccc(-c3ncon3)c2)cs1`, for which the concentration for half-maximal inhibition (IC50) was > 50.1 µM. The result for `Cc1ccc(-c2ncc(CNc3cnccc3CO)s2)cc1` reads > 50.1 µM; that for `Cc1ccc(-c2ncc(CNc3cnccc3CO)s2)o1`, > 50.1 µM. The result for `OCc1ccncc1NCc1cnc(-c2ccccn2)s1` reads > 50.1 µM; that for `Cc1ncc(CNc2cnccc2CO)s1`, > 50.1 µM.

Take `CCOCCN1CCN(CC(O)c2ccc(OC)cc2)CC1` (configuration not stated): the IC50 is > 50.1 µM. Then `COc1ccc(C(NCc2cccc(C#N)c2)C(C)C)cc1` (configuration not stated), with > 50.1 µM; and `COc1ccc(C(NCc2cccc(C#N)c2)C2CC2)cc1` (configuration not stated), with > 50.1 µM. Consider `Cc1csc(C2(NCC(O)COc3ccc(F)cc3)CCC2)n1` (configuration not stated), for which the half-maximal inhibitory concentration (IC50) was > 50.1 µM. `O=C(NCc1cccnc1)C1=NN(c2ccccc2)C(=O)CN1`: the IC50 is > 50.1 µM.

`COCc1ccc(CNC(=O)C2=NN(c3ccccc3)C(=O)CN2)cc1`: the half-maximal inhibitory concentration (IC50) was > 50.1 µM.

As for `c1ccc(COC2CCN(c3cncc(-n4cccn4)n3)CC2)cc1`, the IC50 is > 50.1 µM. Then `CNS(=O)(=O)c1cccc(C(C)NCc2cccc(OC)c2)c1` (configuration not stated), with > 50.1 µM; and `CCS(=O)(=O)c1ccc(N2CCC(NC(=O)CCC(C)C)CC2)cc1`, with > 50.1 µM.

For `Cc1nnc(NCC2(c3ccc(Cl)cc3Cl)CCOCC2)c(C#N)c1C`, the IC50 is > 50.1 µM.

Consider `Cc1nnc(NCC2(c3ccccc3)CC2)c(C#N)c1C`, for which the IC50 was > 50.1 µM.

Regarding `Cc1ccccc1C1(CNc2nnc(C)c(C)c2C#N)CCOCC1`, the IC50 is > 50.1 µM.

As for `CCC(=O)N1CCC2(C=C(C(=O)N(C)C)c3ccccc32)CC1`, the half-maximal inhibitory concentration (IC50) was > 50.1 µM. Consider `Cc1ccc2c(n1)N(Cc1cccnc1)CCN(Cc1cnn(C)c1)C2`, for which the IC50 was > 50.1 µM. The result for `Cc1cc(C(F)(F)F)nc(CCNc2nc(C)nc3sccc23)n1` reads > 50.1 µM. For the compound `CCN1CC(C(=O)NCc2ccc3c(c2)nc(C)n3C)CCC1=O` (configuration not stated), the 50% inhibitory concentration (IC50) is > 50.1 µM. Turning to `CNC(=O)C1CCCN(c2nc(-c3ccco3)nc3c2CCNCC3)C1` (configuration not stated), the IC50 is > 50.1 µM. Regarding `Cc1nc(N2C[C@@H](CN3CCCN(C)CC3)[C@@H](CO)C2)c2ccsc2n1`, the IC50 is > 50.1 µM.

With `Cc1sc2nc(CCN)nc(N(CCN(C)C)CC3CCCO3)c2c1C` (configuration not stated), the half-maximal inhibitory concentration (IC50) is > 50.1 µM. For `Cc1nc(N(Cc2ccncc2)CC2CCCO2)c2ccsc2n1` (configuration not stated), the half-inhibitory concentration (IC50) is > 50.1 µM.

For `CO[C@H]1[C@@H]2CC[C@H]1CN(c1nc(C)nc3sccc13)C2`, the IC50 is > 50.1 µM. Then `Cc1nc2c(c(NCCc3nc4c(s3)CCCC4)n1)CCNCC2`, with 44.3 µM. Then `Cc1sc2nc(CCN)nc(N3CCS(=O)(=O)CC3)c2c1C`, with > 50.1 µM; and `Cc1sc2nc(CCN)nc(N3CCN(S(C)(=O)=O)CC3)c2c1C`, with > 50.1 µM; and `FC(F)(F)c1nc(NC2CCCC2)c2ccccc2n1`, with > 50.1 µM.

Turning to `Cc1nccn1CCCn1cncc1-c1ccc2c(c1)CCCN2C`, the IC50 was > 50.1 µM. In the case of `COc1ccc(OCc2sc(C3(O)CCCNCC3)nc2C)cc1` (configuration not stated), the IC50 is > 50.1 µM. The result for `COc1ccc(OCCc2sc(C3(O)CCCNCC3)nc2C)cc1` (configuration not stated) reads > 50.1 µM; that for `COc1ccc(C(NCc2ccc(C#N)cc2)C2CC2)cc1` (configuration not stated), > 50.1 µM.

`CC(Cn1ccnc1)NCc1cc(Br)c2c(c1)OCO2` (configuration not stated): the half-inhibitory concentration (IC50) is > 50.1 µM. For `CN(Cc1ccccc1)C1COC2(CCN(Cc3nccs3)CC2)C1` (configuration not stated), the concentration for half-maximal inhibition (IC50) is > 50.1 µM. As for `O=C(NC1COC2(CCN(Cc3ccccn3)CC2)C1)c1ccccn1` (configuration not stated), the IC50 was > 50.1 µM. Then `CCN1CCC2(C=C(C(=O)N(C)C)c3ccccc32)CC1`, with > 50.1 µM; and `Cc1ccc(N2CCC3(CN(CCO)CCC3(F)F)C2)nn1` (configuration not stated), with > 50.1 µM; and `OCCN1CCC(F)(F)C2(CCN(c3cnccn3)C2)C1` (configuration not stated), with > 50.1 µM. For the compound `Cc1ccc(N2CCC3(CN(Cc4cccs4)CCC3(F)F)C2)nn1` (configuration not stated), the IC50 is > 50.1 µM. Regarding `CNC(=O)[C@@H]1C[C@H]2CN(Cc3ccco3)C[C@H]2N1C`, the half-inhibitory concentration (IC50) is > 50.1 µM. Take `Cc1ccc(CN2CCC(F)(F)C3(CCN(c4cnccn4)C3)C2)o1` (configuration not stated): the IC50 was > 50.1 µM.

With `Cc1ccc(N2CCC3(CN(Cc4ccncc4)CCC3(F)F)C2)nn1` (configuration not stated), the IC50 was > 50.1 µM. Then `CN1CCN(C2COC3(CCN(Cc4cccs4)CC3)C2)CC1` (configuration not stated), with > 50.1 µM. The result for `CN1CCN(C2COC3(CCN(Cc4ccc(F)cc4)CC3)C2)CC1` (configuration not stated) reads > 50.1 µM; that for `Cc1ccc(CN2CCC3(CC2)CC(N2CCN(C)CC2)CO3)s1` (configuration not stated), > 50.1 µM. The result for `CC1CCCN(Cc2ccnc(-c3cccnc3)n2)C1` (configuration not stated) reads > 50.1 µM.
